Like-named read-outs stand apart in the source and are kept apart here.
Target: PIKFYVE (Homo sapiens, UniProt Q9Y2I7)
Assay: KINOMEscan Kinase Assay (PIKFYVE inhibitory activity)
[1] = read-out: PIKfyve Activity (% inhibition)
[2] = read-out: PIKfyve Activity (PIKfyve % inhibition)

Chain of PIKFYVE (Q9Y2I7 whole entry): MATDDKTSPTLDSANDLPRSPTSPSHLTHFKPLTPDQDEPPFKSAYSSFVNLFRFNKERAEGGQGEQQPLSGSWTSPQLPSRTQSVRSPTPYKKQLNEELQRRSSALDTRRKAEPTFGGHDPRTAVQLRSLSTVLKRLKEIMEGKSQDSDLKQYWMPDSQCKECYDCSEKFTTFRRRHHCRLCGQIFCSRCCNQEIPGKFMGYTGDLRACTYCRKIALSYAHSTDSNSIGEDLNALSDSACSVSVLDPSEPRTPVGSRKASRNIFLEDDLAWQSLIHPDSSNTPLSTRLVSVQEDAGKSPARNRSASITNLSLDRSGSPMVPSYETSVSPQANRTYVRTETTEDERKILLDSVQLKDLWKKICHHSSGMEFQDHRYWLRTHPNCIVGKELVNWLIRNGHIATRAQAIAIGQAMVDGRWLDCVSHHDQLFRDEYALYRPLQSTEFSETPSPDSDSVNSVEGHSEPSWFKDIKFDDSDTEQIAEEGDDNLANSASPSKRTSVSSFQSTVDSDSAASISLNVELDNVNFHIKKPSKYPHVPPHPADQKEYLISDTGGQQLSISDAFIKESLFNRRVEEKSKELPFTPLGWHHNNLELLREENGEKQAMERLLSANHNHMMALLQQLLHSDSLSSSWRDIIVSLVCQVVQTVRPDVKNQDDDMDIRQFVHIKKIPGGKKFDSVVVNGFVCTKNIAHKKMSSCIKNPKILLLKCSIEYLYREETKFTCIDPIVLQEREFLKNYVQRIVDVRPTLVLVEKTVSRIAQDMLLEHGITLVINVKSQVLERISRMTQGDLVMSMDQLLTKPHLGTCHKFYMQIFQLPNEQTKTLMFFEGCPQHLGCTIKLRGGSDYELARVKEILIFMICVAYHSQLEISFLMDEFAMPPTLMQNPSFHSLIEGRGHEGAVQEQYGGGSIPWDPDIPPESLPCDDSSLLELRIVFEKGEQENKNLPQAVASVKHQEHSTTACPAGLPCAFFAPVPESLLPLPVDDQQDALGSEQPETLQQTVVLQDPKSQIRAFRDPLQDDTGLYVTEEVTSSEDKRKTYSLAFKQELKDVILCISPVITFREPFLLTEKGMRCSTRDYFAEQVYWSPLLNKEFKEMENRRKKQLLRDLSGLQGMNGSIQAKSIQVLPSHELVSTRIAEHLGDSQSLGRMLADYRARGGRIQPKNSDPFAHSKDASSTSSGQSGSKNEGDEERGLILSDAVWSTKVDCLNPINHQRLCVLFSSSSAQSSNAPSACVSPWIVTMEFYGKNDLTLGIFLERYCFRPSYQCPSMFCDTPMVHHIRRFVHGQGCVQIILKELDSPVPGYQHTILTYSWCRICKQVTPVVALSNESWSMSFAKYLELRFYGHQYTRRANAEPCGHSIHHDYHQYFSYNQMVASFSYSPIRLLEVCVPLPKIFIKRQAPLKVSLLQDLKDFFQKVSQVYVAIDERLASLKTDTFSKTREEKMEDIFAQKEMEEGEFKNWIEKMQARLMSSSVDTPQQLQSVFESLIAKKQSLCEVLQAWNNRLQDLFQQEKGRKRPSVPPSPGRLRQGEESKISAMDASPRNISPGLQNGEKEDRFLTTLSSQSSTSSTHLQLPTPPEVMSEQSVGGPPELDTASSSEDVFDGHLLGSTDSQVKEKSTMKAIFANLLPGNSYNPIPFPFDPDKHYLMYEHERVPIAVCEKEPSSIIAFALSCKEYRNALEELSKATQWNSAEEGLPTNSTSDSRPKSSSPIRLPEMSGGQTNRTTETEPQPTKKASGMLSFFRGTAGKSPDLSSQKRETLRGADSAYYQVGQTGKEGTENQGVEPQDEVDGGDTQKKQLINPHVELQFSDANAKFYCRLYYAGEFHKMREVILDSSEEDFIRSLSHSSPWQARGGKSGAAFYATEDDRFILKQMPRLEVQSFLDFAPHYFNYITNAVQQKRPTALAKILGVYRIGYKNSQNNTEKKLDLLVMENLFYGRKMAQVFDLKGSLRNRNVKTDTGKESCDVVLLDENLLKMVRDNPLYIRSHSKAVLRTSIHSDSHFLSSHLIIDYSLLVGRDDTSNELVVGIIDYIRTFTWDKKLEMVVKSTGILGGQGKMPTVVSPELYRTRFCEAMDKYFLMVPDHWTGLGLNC

Row | Structure (SMILES) | inhibition at 0.001 µM [2] [%] | other results
1 | Cc1cccc(-c2ccn(-c3nc4[nH]c(C(=O)N5CCN(S(C)(=O)=O)CC5)nc4c(N4CCOCC4)c3F)n2)c1 [Ex. 292] |  | inhibition at 0.001 µM [1]: 13%
2 | Cc1cccc(-c2ccn(-c3nc4[nH]c(C(=O)N5CCC(C(C)(C)O)CC5)nc4c(N4CCOCC4)c3F)n2)c1 [Ex. 306] |  | inhibition at 0.003 µM [1]: 9%
3 | Cc1cccc(-c2ccn(-c3cc(N4CCOCC4)c4sc(C(=O)NC5CC5)cc4n3)n2)c1 [Ex. 183, N-cyclopropyl-7-morpholino-5-(3-(m-tolyl)-1H-pyrazol-1-yl)thieno[3,2-b]pyridine-2-carboxamide] | 52 to 100 | 
4 | Cc1cccc(-c2ccn(-c3nc(N4CCOCC4)c4nc(CN5CCN(S(C)(=N)=O)CC5)[nH]c4n3)n2)c1 (stereo not shown) [Ex. 282] |  | inhibition at 0.001 µM [1]: 41%
5 | Cc1cccc(-c2ccn(-c3cc(N4CCOCC4)c4sc(C(N)=O)cc4n3)n2)c1 [Ex. 293] | 52 to 100 | 
6 | Cc1cccc(-c2ccn(-c3cc(N4CCOCC4)c4sc(C(=O)N5CC(F)C(N6CCC6)C5)cc4n3)n2)c1 (stereo not shown) [Ex. 239] | 52 to 100 | 
7 | Cc1cccc(-c2ccn(-c3cc(N4CCOCC4)c4sc(C(=O)NC5CCN(C)CC5)cc4n3)n2)c1 [Ex. 186, N-(1-Methylpiperidin-4-yl)-7-morpholino-5-(3-(m-tolyl)-1H-pyrazol-1-yl)thieno[3,2-b]pyridine-2-carboxamide] | 52 to 100 | 
8 | Cc1cccc(-c2ccn(-c3cc(N4CCOCC4)c4nc(CN5CCN(C(C)C)CC5)n(C)c4n3)n2)c1 [Ex. 79, 4-(2-((4-isopropylpiperazin-1-yl)methyl)-3-methyl-5-(3-(m-tolyl)-1H-pyrazol-1-yl)-3H-imidazo[4,5-b]pyridin-7-yl)morpholine] | 52 to 100 | 
9 | Cc1cccc(-c2ccn(-c3nc(N4CCOCC4)c4sc(CO)cc4n3)n2)c1 [Ex. 311] | 52 to 100 | 
10 | Cc1cccc(-c2ccn(-c3nc(N4CCOCC4)c4sc(N(C)C5CCN(C)CC5)nc4n3)n2)c1 [Ex. 208, N-Methyl-N-(1-methylpiperidin-4-yl)-7-morpholino-5-(3-(m-tolyl)-1H-pyrazol-1-yl)thiazolo[4,5-d]pyrimidin-2-amine] | 52 to 100 | 
11 | Cc1cccc(-c2ccn(-c3nc(N4CCOCC4)c4nc(CN5CCN(C(C)C)CC5)[nH]c4n3)n2)c1 [Ex. 40, 4-(8-((4-isopropylpiperazin-1-yl)methyl)-2-(3-(m-tolyl)-1H-pyrazol-1-yl)-9H-purin-6-yl)morpholine] |  | IC50: 1 to 10 nM
12 | Cc1cccc(-c2ccn(-c3cc(N4CCOCC4)c4sc(NC(=O)C5CNC5)cc4n3)n2)c1 [Ex. 278] | 52 to 100 | 
13 | Cc1cccc(-c2ccn(-c3cc(N4CCOCC4)c4nc(C(=O)NC5COC5)n(C)c4n3)n2)c1 [Ex. 308] | 52 to 100 | 
14 | Cc1cccc(-c2nc(-c3cc(N4CCOCC4)c4sc(CN5CCN(S(C)(=O)=O)CC5)cc4n3)co2)c1 [Ex. 242] |  | inhibition at 0.003 µM [1]: 8%
15 | Cc1cccc(-c2ccn(-c3cc(N4CCOCC4)c4nc(CN5CC6CC5CN6S(C)(=O)=O)[nH]c4n3)n2)c1 (stereo not shown) [Ex. 281] | 52 to 100 | 
16 | Cc1cccc(-c2ccn(-c3cc(N4CCOCC4)c4sc(CN5CCC(C(N)=O)CC5)cc4n3)n2)c1 [Ex. 297] | 52 to 100 | 
17 | Cc1cccc(-c2ccn(-c3nc(N4CCOCC4)c4sc(C#CCN(C)C)cc4n3)n2)c1 [Ex. 207, N,N-Dimethyl-3-(4-morpholino-2-(3-(m-tolyl)-1H-pyrazol-1-yl)thieno[3,2-d]pyrimidin-6-yl)prop-2-yn-1-amine] |  | inhibition at 0.001 µM [1]: 35%
18 | Cc1cccc(-c2ccn(-c3nc(N4CCOCC4)c4sc(/C=C/CN5CCN(C)CC5)cc4n3)n2)c1 [Ex. 180] | 52 to 100 | 
19 | Cc1cccc(-c2ccn(-c3cc(N4CCOCC4)c4sc(C(=O)N5CCN(S(C)(=O)=O)CC5)c(C)c4n3)n2)c1 [Ex. 291] | 52 to 100 | 
20 | Cc1cccc(-c2ccn(-c3cc(N4CCOCC4)c4sc(CN5CCN(S(C)(=N)=O)CC5)cc4n3)n2)c1 (stereo not shown) [Ex. 284] | 52 to 100 | 
21 | Cc1cccc(-c2ccn(-c3cc(N4CCOCC4)c4sc(C(=O)NC5(C)COC5)cc4n3)n2)c1 [Ex. 252] | 52 to 100 | 
22 | Cc1cccc(-c2ccn(-c3nc(N4CCOCC4)c4nc(C(=O)N5CCN(S(C)(=O)=O)CC5)[nH]c4n3)n2)c1 [Ex. 78] | 52 to 100 | 
23 | Cc1cccc(-c2ccn(-c3cc(N4CCOCC4)c4sc(CN5CCN(C(C)C)CC5)c(C)c4n3)n2)c1 [Ex. 132, 4-(2-((4-Isopropylpiperazin-1-yl)methyl)-3-methyl-5-(3-(m-tolyl)-1H-pyrazol-1-yl)thieno[3,2-b]pyridin-7-yl)morpholine] | 52 to 100 | 
24 | Cc1cccc(-c2ccn(-c3cc(N4CCOCC4)c4nc(C(=O)N5CCN(S(C)(=O)=O)CC5)n(C)c4n3)n2)c1 [Ex. 304] |  | inhibition at 0.001 µM [1]: 46%
25 | Cc1cccc(-c2ccn(-c3cc(N4CCOCC4)c4sc(C(=O)NC5COC5)cc4n3)n2)c1 [Ex. 179, 7-Morpholino-N-(oxetan-3-yl)-5-(3-(m-tolyl)-1H-pyrazol-1-yl)thieno[3,2-b]pyridine-2-carboxamide] | 52 to 100 | 
26 | Cc1cccc(-c2ccn(-c3nc(N4CCOCC4)c4nc(C(=O)N5CCC(N6CCC6)C(F)C5)[nH]c4n3)n2)c1 (stereo not shown) [Ex. 85, (4-(Azetidin-1-yl)-3-fluoropiperidin-1-yl) (6-morpholino-2-(3-(m-tolyl)-1H-pyrazol-1-yl)-9H-purin-8-yl)methanone] | 52 to 100 | 

Row | Structure (SMILES) | inhibition at 0.001 µM [2] [%] | other results
27 | Cc1cccc(-c2ccn(-c3cc(N4CCOCC4)c4sc(NC(=O)C5COC5)cc4n3)n2)c1 [Ex. 232] |  | inhibition at 0.001 µM [1]: 24%
28 | Cc1cccc(-c2ccn(-c3cc(N4CCOCC4)c4sc(CO)cc4n3)n2)c1 [Ex. 313] | 52 to 100 | 
29 | Cc1cccc(-c2ccn(-c3cc(N4CCOCC4)c4sc(C(=O)NCCN(C)C)cc4n3)n2)c1 [Ex. 255] | 52 to 100 | 
30 | Cc1cccc(-c2ccn(-c3nc(N4CCOCC4)c4sc(C(=O)N5CCN(S(C)(=O)=O)CC5)cc4n3)n2)c1 [Ex. 286] | 52 to 100 | 
31 | Cc1cccc(-c2ccn(-c3nc4[nH]c(C(=O)N5CCC(N6CCC6)C(F)C5)nc4c(N4CCOCC4)c3F)n2)c1 (stereo not shown) [Ex. 312] |  | inhibition at 0.003 µM [1]: 10%
32 | CNC(=O)c1cc2nc(-n3ccc(-c4cccc(C)c4)n3)cc(N3CCOCC3)c2s1 [Ex. 247] | 52 to 100 | 
33 | CC(=O)N1CCN(Cc2nc3c(N4CCOCC4)cc(-n4ccc(-c5cccc(C)c5)n4)nc3[nH]2)CC1 [Ex. 301] | 52 to 100 | 
34 | Cc1cccc(-c2ccn(-c3cc(N4CCOCC4)c4sc(C(=O)NC5CCN(C)C5)cc4n3)n2)c1 (stereo not shown) [Ex. 200, N-(1-Methylpyrrolidin-3-yl)-7-morpholino-5-(3-(m-tolyl)-1H-pyrazol-1-yl)thieno[3,2-b]pyridine-2-carboxamide] | 52 to 100 | 
35 | Cc1cccc(-c2ccn(-c3cc(N4CCOCC4)c4nc(C(=O)NC5CC5)n(C)c4n3)n2)c1 [Ex. 309] | 52 to 100 | 
36 | Cc1cccc(-c2ccn(-c3cc(N4CCOCC4)c4nc(CN5CCC(N6CCC6)C(F)C5)n(C)c4n3)n2)c1 (stereo not shown) [Ex. 83, 4-(2-((4-(azetidin-1-yl)-3-fluoropiperidin-1-yl)methyl)-3-methyl-5-(3-(m-tolyl)-1H-pyrazol-1-yl)-3H-imidazo[4,5-b]pyridin-7-yl)morpholine] | 52 to 100 | 
37 | Cc1cccc(-c2ccn(-c3cc(N4CCOCC4)c4sc(CO)c(C)c4n3)n2)c1 [Ex. 166, (3-Methyl-7-morpholino-5-(3-(m-tolyl)-1H-pyrazol-1-yl)thieno[3,2-b]pyridin-2-yl)methanol] |  | inhibition at 0.001 µM [1]: 34%; inhibition at 0.003 µM [1]: 14%
38 | Cc1cccc(-c2ccn(-c3cc(N4CCOCC4)c4sc(CN5CCN(S(C)(=O)=O)CC5)c(C)c4n3)n2)c1 [Ex. 169, 4-(3-Methyl-2-((4-(methylsulfonyl)piperazin-1-yl)methyl)-5-(3-(m-tolyl)-1H-pyrazol-1-yl)thieno[3,2-b]pyridin-7-yl)morpholine] |  | inhibition at 0.003 µM [1]: 47%
39 | CC(=O)NC1CCN(Cc2nc3c(N4CCOCC4)cc(-n4ccc(-c5cccc(C)c5)n4)nc3[nH]2)CC1 [Ex. 302] | 52 to 100 | 
40 | Cc1cccc(-c2ccn(-c3cc(N4CCOCC4)c4nc(CN5CCN(S(=O)(=O)C(C)C)CC5)[nH]c4n3)n2)c1 [Ex. 279] | 52 to 100 | 
41 | Cc1cccc(-c2ccn(-c3cc(N4CCOCC4)c4nc(C(=O)NC5CC5)[nH]c4n3)n2)c1 [Ex. 305] | 52 to 100 | 
42 | Cc1cccc(-c2ccn(-c3cc(N4CCOCC4)c4sc(C(=O)Nc5ccccn5)cc4n3)n2)c1 [Ex. 299] | 52 to 100 | 
43 | Cc1cccc(-c2ccn(-c3nc(N4CCOCC4)c4nc(C(=O)N5CCN(C(C)C)CC5)[nH]c4n3)n2)c1 [Ex. 86] | 52 to 100 | 
44 | Cc1cccc(-c2ccn(-c3nc(N4CCOCC4)c4sc(NCCN5CCOCC5)nc4n3)n2)c1 [Ex. 202, 7-Morpholino-N-(2-morpholinoethyl)-5-(3-(m-tolyl)-1H-pyrazol-1-yl)thiazolo-[4,5-d]pyrimidin-2-amine] | 52 to 100 | 
45 | Cc1cccc(-c2ccn(-c3cc(N4CCOCC4)c4nc(C(=O)N5CCN(S(C)(=O)=O)CC5)[nH]c4n3)n2)c1 [Ex. 87] |  | inhibition at 0.001 µM [1]: 20%
46 | Cc1cccc(-c2ccn(-c3cc(N4CCOCC4)c4sc(C(=O)NC5CN(C)C5)cc4n3)n2)c1 [Ex. 201, N-(1-Methylazetidin-3-yl)-7-morpholino-5-(3-(m-tolyl)-1H-pyrazol-1-yl)thieno[3,2-b]pyridine-2-carboxamide] | 52 to 100 | 
47 | Cc1cccc(-c2ccn(-c3nc(N4CCOCC4)c4nc(CO)n(C)c4n3)n2)c1 [Ex. 315] |  | inhibition at 0.001 µM [1]: 47%
48 | Cc1cccc(-c2ccn(-c3nc(N4CCOCC4)c4sc(NCCS(C)(=O)=O)nc4n3)n2)c1 [Ex. 209, N-(2-(Methylsulfonyl)ethyl)-7-morpholino-5-(3-(m-tolyl)-1H-pyrazol-1-yl)thiazolo[4,5-d]pyrimidin-2-amine] | 52 to 100 | 
49 | CC(=O)NC1CCN(Cc2cc3nc(-n4ccc(-c5cccc(C)c5)n4)cc(N4CCOCC4)c3s2)CC1 [Ex. 296] | 52 to 100 | 
50 | Cc1cccc(-c2nc(-c3cc(N4CCOCC4)c4sc(CN5CCN(S(C)(=O)=O)CC5)cc4n3)cs2)c1 [Ex. 244] |  | inhibition at 0.001 µM [1]: 37%
51 | Cc1cccc(-c2ccn(-c3cc(N4CCOCC4)c4sc(C(=O)NC5CCOCC5)cc4n3)n2)c1 [Ex. 177, 7-Morpholino-N-(tetrahydro-2H-pyran-4-yl)-5-(3-(m-tolyl)-1H-pyrazol-1-yl)thieno[3,2-b]pyridine-2-carboxamide] | 52 to 100 | 
